Measured values: patent US20230065953A1, “NOVEL HETEROARYL-TRIAZOLE COMPOUNDS AS PESTICIDES” (Bayer Aktiengesellschaft, priority 2019, published 2023)

Assays:
Assay type in all cases: in vivo
[1] = system: Rhipicephalus microplus larvae (strain Parkhurst, resistant against synthetic pyrethroids); test: Rhipicephalus (Boophilus) microplus in-vitro contact test, larval cattle tick; details: 5 μg/cm^2 (=500 g/ha), after 48 hours, read-out: efficacy (larvae dead or moribund)
Protocol: Rhipicephalus (Boophilus) Microplus—In-Vitro Contact Tests Larval Cattle Tick (Strain Parkhurst, Resistant Against Synthetic Pyrethroids)
(§1) 9 mg compound is solved in 1 mL acetone and diluted with acetone to the desired concentration. 250 μL of the test solution is filled in 25 mL glass test tubes and homogeneously distributed on the inner walls by rotation and tilting on a shaking device (2 h at 30 rpm). With a compound concentration of 900 ppm, an inner surface of 44.7 cm^2 and a homogeneous distribution, a dose of 5 μg/cm^2 is achieved.
After the solvent has evaporated, each test tube is filled with 20-50 cattle tick larvae (Rhipicephalus microplus), closed with a perforated lid and incubated in a horizontal position at 85% relative humidity and 27° C. in an incubator. After 48 hours efficacy is determined. The larvae are patted on the ground of the tubes and negative geotactic behavior is recorded.
An efficacy of 100% means all larvae are dead or moribund; 0% means no larvae are dead or moribund.

[2] = system: adult engorged female ticks (Rhipicephalus microplus); test: Rhipicephalus (Boophilus) microplus injection test; details: 168 h, 4 μg/animal, egg deposition after 7 days, read-out: efficacy (infertile eggs)
Protocol: Rhipicephalus (Boophilus) Microplus—Injection Test
(§2) Solvent: dimethyl sulfoxide
To produce a suitable preparation of active compound, 10 mg of active compound are dissolved in 0.5 mL solvent, and the concentrate is diluted with solvent to the desired concentration.
Five adult engorged female ticks (Rhipicephalus microplus) are injected with 1 μL compound solution into the abdomen. The ticks are transferred into replica plates and incubated in a climate chamber.
After 7 days egg deposition of fertile eggs is monitored. Eggs where fertility is not visible are stored in a climate chamber till hatching after about 42 days. An efficacy of 100% means all eggs are infertile; 0% means all eggs are fertile.

[3] = system: adult unfed cat fleas (Ctenocephalides felis); test: Ctenocephalides felis oral test; details: 48 h
Protocol: Ctenocephalides felis—Oral Test
as §2
To produce a suitable preparation of active compound, 10 mg of active compound are dissolved in 0.5 mL solvent, and the concentrate is diluted with cattle blood to the desired concentration.
Approximately 20 adult unfed cat fleas (Ctenocephalides felis) are placed in flea chambers. The blood chamber, sealed with parafilm on the bottom, are filled with cattle blood supplied with compound solution and placed on the gauze covered top of the flea chamber, so that the fleas are able to suck the blood. The blood chamber is heated to 37° C. whereas the flea chamber is kept at room temperature.
After 2 days mortality in % is determined. 100% means all the fleas have been killed; 0% means none of the fleas have been killed.

[4] = system: larvae of the banded cucumber beetle (Diabrotica balteata); test: Diabrotica balteata spray test; details: 168 h, 100 g/ha (=32 μg/well), wheat seeds, after 7 days, read-out: efficacy (seedling growth)
Protocol: Diabrotica Balteata—Spray Test
• Solvent: 78.0 parts by weight of acetone • 1.5 parts by weight of dimethylformamide • Emulsifier: alkylarylpolyglycol ether
Further test concentrations are prepared by dilution with emulsifier containing water.
Soaked wheat seeds (Triticum aestivum) are placed in a multiple well plate filled with agar and some water and are incubated for 1 day to germinate (5 seeds per well). The germinated wheat seeds are sprayed with a test solution containing the desired concentration of the active ingredient. Afterwards each unit is infected with 10-20 larvae of the banded cucumber beetle (Diabrotica balteata).
After 7 days efficacy in % is determined.

[5] = system: fall armyworm larvae (Spodoptera frugiperda); test: Spodoptera frugiperda spray test (maize leaf sections); details: 168 h
Protocol: Spodoptera frugiperda—Spray Test • Solvent: 78.0 parts by weight acetone • 1.5 parts by weight dimethylformamide • Emulsifier: alkylarylpolyglycol ether
(§3) To produce a suitable preparation of active compound, 1 part by weight of active compound is mixed with the stated amount of solvents and is diluted with water, containing an emulsifier concentration of 1000 ppm, to the desired concentration. Further test concentrations are prepared by dilution with emulsifier containing water.
Maize (Zea mays) leaf sections are sprayed with a preparation of the active ingredient of the desired concentration. Once dry, the leaf sections are infested with fall armyworm larvae (Spodoptera frugiperda).
After 7 days mortality in % is determined. 100% means all caterpillars have been killed and 0% means none of the caterpillars have been killed.

[6] = system: green peach aphid (Myzus persicae); test: Myzus persicae oral test; details: 120 h
Protocol: Myzus persicae—oral test • Solvent: 100 parts by weight acetone
To produce a suitable preparation of active compound, 1 part by weight of active compound is mixed with the stated amount of solvent, and the concentrate is diluted with water to the desired concentration. 50 μL compound solution is filled in microtiter plates and 150 μL IPL41 insect medium (33%+15% sugar) is added to obtain a total volume of 200 μL per well. Afterwards the plates are sealed with parafilm through which a mixed population of the green peach aphid (Myzus persicae) can suck on the compound preparation.
(§4) After 5 days mortality in % is determined. 100% means all aphids have been killed and 0% means none of the aphids have been killed.

[7] = system: green peach aphid (Myzus persicae); test: Myzus persicae spray test; details: foliar, 120 h, Chinese cabbage leaf disks, after 5 days
Protocol: Myzus persicae—Spray Test • Solvent: 78.0 parts by weight acetone • 1.5 parts by weight dimethylformamide • Emulsifier: alkylarylpolyglycol ether
as §3
Chinese cabbage (Brassica pekinensis) leaf disks infected with all instars of the green peach aphid (Myzus persicae), are sprayed with a preparation of the active ingredient of the desired concentration.
as §4

[8] = system: adult flies Musca domestica strain WHO-N; test: Musca domestica test (MUSCDO surface treatment & contact assay); details: surface concentration 20 mg/m^2, 30 min exposure, 24 hours after contact, read-out: efficacy (mortality)
Protocol: Musca domestica Test (MUSCDO Surface Treatment & Contact Assay) • Solvent: Aceton+2000 ppm rapeseed oil methyl ester (RME)
In order to produce a sufficient, active ingredient containing solution it is necessary to solve the test compound in the solvent-mix (acetone at 2 mg/ml/RME 2000 ppm). This solution is pipetted onto a glazed tile and after evaporation of the acetone, adult flies of the species Musca domestica strain WHO-N are placed onto the dried surface. The exposure time is 30 minutes.
Mortality in percent (%) is determined 24 hours after contact of the insects to the treated surface. 100% mortality means that all tested insects are dead, whereas 0% means that no insect died.

[9] = system: adult cat fleas (Ctenocephalides felis); test: Ctenocephalides felis in-vitro contact test, adult cat flea; details: 5 μg/cm^2 (=500 g/ha), after 48 hours
Protocol: Ctenocephalides felis—In-Vitro Contact Tests Adult Cat Flea
as §1
After the solvent has evaporated, each test tube is filled with 5-10 adult cat fleas (Ctenocephalides felis), closed with a perforated lid and incubated in a lying position at room temperature and relative humidity. After 48 hours efficacy is determined. The fleas are patted on the ground of the tubes and are incubated on a heating plate at 45-50° C. for at most 5 minutes. Immotile or uncoordinated moving fleas, which are not able to escape the heat by climbing upwards, are marked as dead or moribund.
An efficacy of 100% means all fleas are dead or moribund; 0% means no fleas are dead or moribund.

[10] = system: larvae of the southern green stink bug (Nezara viridula); test: Nezara viridula spray test; details: in Hordeum vulgare, 96 h
Protocol: Nezara viridula—Spray Test • Solvent: 78.0 parts by weight of acetone • 1.5 parts by weight of dimethylformamide • Emulsifier: alkylarylpolyglycol ether
as §3, with “solvent,” for “solvents”, “and the concentrate” for “and”
Barley plants (Hordeum vulgare) are sprayed with a test solution containing the desired concentration of the active ingredient and are infested with larvae of the southern green stink bug (Nezara viridula).
After 4 days mortality in % is determined. 100% means all the stink bugs have been killed; 0% means none of the stink bugs have been killed.

Compound	pest or weed control at 5 µg/cm2 [1]	pest or weed control at 0.004 mg [2]	mortality at 100 ppm [3]	pest or weed control at 32 µg/disc, 100 g/ha [4]	mortality at 100 g/ha [5]	mortality at 4 ppm [6]	further results
Cc1nc([C@H](C)NC(=O)c2cc(C#N)cc(C(F)(F)F)c2)n(-c2ncc(C#N)s2)n1 [I-16]	100%	100%	100%	100%	100%		
CC(NC(=O)c1cc(Br)cc(Br)c1)c1ncnn1-c1ncc(C#N)s1 (stereo not drawn) [I-27]		100%	100%	100%			
CC(NC(=O)c1cc(Br)cc(I)c1)c1ncnn1-c1ncc(C#N)s1 (stereo not drawn) [I-29]	90%	100%	100%				
CC(NC(=O)c1cc(Cl)cc(S(F)(F)(F)(F)F)c1)c1ncnn1-c1ncc(C#N)s1 (stereo not drawn) [I-32]	90%	100%	100%	100%	100%		
CC(NC(=O)c1cc(OC(F)F)cc(C(F)F)c1)c1ncnn1-c1ncc(C#N)s1 (stereo not drawn) [I-34]	90%	100%	100%	100%	100%	100%	
CC(NC(=O)c1cc(OC(F)F)cc(C2CC2)c1)c1ncnn1-c1ncc(C#N)s1 (stereo not drawn) [I-35]	100%	100%	100%	100%	100%	100%	mortality at 100 g/ha [7]: 90%
C[C@H](NC(=O)c1cc(Cl)cc(S(C)(=O)=O)c1)c1nc(C2CC2)nn1-c1ncc(C#N)s1 [I-40, 3-chloro-N-{(1S)-1-[1-(5-cyano-1,3-thiazol-2-yl)-3-cyclopropyl-1H-1,2,4-triazol-5-yl]ethyl}-5-(methylsulfonyl)benzamide]				80%	100%	90%	
C[C@H](NC(=O)c1cc(Cl)cc(S(=O)(=O)C2CC2)c1)c1nc(C2CC2)nn1-c1ncc(C#N)s1 [I-42]				100%	100%	100%	
C[C@H](NC(=O)c1cc(Cl)cc(Br)c1)c1ncnn1-c1ncc(C#N)s1 [I-59]				100%	100%		mortality at 20 mg/m2 [8]: 80 to 100%
Cc1nc([C@H](C)NC(=O)c2cc(Cl)cc(C(F)(F)F)c2)n(-c2ncc(C(=O)NC3CC3)s2)n1 [I-66]	100%	100%		100%	100%	100%	mortality at 100 g/ha [7]: 90%
Cc1nc([C@H](C)NC(=O)c2cc(Cl)cc(C(F)(F)F)c2)n(-c2ncc(C(=O)NCC3CC3)s2)n1 [I-67]	100%	100%		100%	100%	100%	
Cc1nc([C@H](C)NC(=O)c2cc(Br)cc(C#N)c2)n(-c2ncc(C(=O)N(C)C)s2)n1 [I-70]	70%						efficacy (fleas dead or moribund) [9]: 100%
Cc1nc([C@H](C)NC(=O)c2cc(Br)cc(Br)c2)n(-c2ncc(C(=O)N(C)C)s2)n1 [I-71]	100%			100%			efficacy (fleas dead or moribund) [9]: 100%
Cc1nc([C@H](C)NC(=O)c2cncc(C(F)(F)F)c2)n(-c2ncc(C(=O)N(C)CC#N)s2)n1 [I-73]	100%					100%	mortality at 100 g/ha [7]: 90%
Cc1nc([C@H](C)NC(=O)c2cc(Cl)cc(S(=O)(=O)C3CC3)c2)n(-c2ncc(C(=O)N(C)CC#N)s2)n1 [I-74]						100%	mortality at 100 g/ha [7]: 90%
Cc1nc([C@H](C)NC(=O)c2cc(Cl)cc(S(C)(=O)=O)c2)n(-c2ncc(C(=O)N(C)C)s2)n1 [I-78]						100%	
Cc1nc([C@H](C)NC(=O)c2cc(Cl)cc(S(C)(=O)=O)c2)n(-c2ncc(C(=O)N(C)CC#N)s2)n1 [I-79]						100%	
Cc1nc([C@H](C)NC(=O)c2cc(Cl)cc(I)c2)n(-c2ncc(C(=O)N(C)CC#N)s2)n1 [I-81]	100%			100%	100%	100%	
Cc1nc([C@H](C)NC(=O)c2cc(C(F)(F)F)cc(S(C)(=O)=O)c2)n(-c2ncc(C(=O)N(C)CC#N)s2)n1 [I-84]	80%	100%	100%	100%		100%	mortality at 100 g/ha [10]: 100%
C[C@H](NC(=O)c1cc(C(F)(F)F)cc(S(C)(=O)=O)c1)c1nc(C2CC2)nn1-c1ncc(C#N)s1 [I-103]				100%	100%		mortality at 500 g/ha [10]: 90%; mortality at 20 mg/m2 [8]: 80 to 100%
